Laboratory results as given in the NIST ThermoML archive (doi:10.1016/j.jct.2015.11.009).
± gives the expanded uncertainty stated by the source.

Tests used:
[1] = xn = mol fraction of the nth substance listed; conditions: 100 kPa, Liquid, x1 = 1; for speed of sound: Frequency=3 MHz, Sing-around technique in a fixed-path interferometer; for mass density: Vibrating tube method
[2] = refractive index (Na D-line) (dimensionless); xn = mol fraction of the nth substance listed; conditions: 100 kPa, Liquid, Standard Abbe refractometry, x1 = 1
[3] = 100 kPa, Liquid; for speed of sound: Frequency=3 MHz, Sing-around technique in a fixed-path interferometer; for mass density: Vibrating tube method
[4] = refractive index (Na D-line) (dimensionless); conditions: 100 kPa, Liquid, Standard Abbe refractometry

CCCCn1cc[n+](C)c1.F[B-](F)(F)F [1-butyl-3-methylimidazolium tetrafluoroborate] + O=C1CCCN1
Conditions | mass density, [1] [kg/m3] | refractive index, [2] | speed of sound, [1] [m/s]
298.15 K | 1198.78 ± 1.1 | 1.42058 ± 0.00087 | 1565.1 ± 1.6
303.15 K | 1195.18 ± 1.1 | 1.41913 ± 0.00087 | 1553.2 ± 1.6
308.15 K | 1191.6 ± 1.1 | 1.41764 ± 0.00087 | 1541.3 ± 1.6
313.15 K | 1188.04 ± 1.1 | 1.41621 ± 0.00087 | 1529.7 ± 1.6
318.15 K | 1184.5 ± 1.1 | 1.41472 ± 0.00087 | 1518.2 ± 1.6
323.15 K | 1180.98 ± 1.1 | 1.4133 ± 0.00087 | 1506.8 ± 1.6

O=C1CCCN1 [2-pyrrolidinone]
Conditions | mass density, [3] [kg/m3] | refractive index, [4] | speed of sound, [3] [m/s]
298.15 K | 1107.16 ± 1 | 1.48591 ± 0.00086 | 1634.4 ± 1.4
303.15 K | 1103.07 ± 1 | 1.48403 ± 0.00086 | 1618 ± 1.4
308.15 K | 1098.99 ± 1 | 1.48218 ± 0.00086 | 1601.6 ± 1.4
313.15 K | 1094.9 ± 1 | 1.48033 ± 0.00086 | 1585.4 ± 1.4
318.15 K | 1090.82 ± 1 | 1.47841 ± 0.00086 | 1570.4 ± 1.4
323.15 K | 1086.75 ± 1 | 1.47649 ± 0.00086 | 1553.5 ± 1.4
